Measured values as given in ChEMBL document CHEMBL1201862, “PubChem BioAssay data set” (2004).
Values joined by “and” are separate entries in the source; they are usually repeats but may differ in a detail not shown here. Equal entries are not always repeated. Each block holds one compound with its values, some of them ahead of it. Active and inactive are the calls of the source.

Assays:
CAAX prenyl protease 2 = molecular target: T1, CAAX prenyl protease 2 (Saccharomyces cerevisiae S288c, UniProt Q03530); assay type: biochemical
T1 sequence (Q03530 whole entry): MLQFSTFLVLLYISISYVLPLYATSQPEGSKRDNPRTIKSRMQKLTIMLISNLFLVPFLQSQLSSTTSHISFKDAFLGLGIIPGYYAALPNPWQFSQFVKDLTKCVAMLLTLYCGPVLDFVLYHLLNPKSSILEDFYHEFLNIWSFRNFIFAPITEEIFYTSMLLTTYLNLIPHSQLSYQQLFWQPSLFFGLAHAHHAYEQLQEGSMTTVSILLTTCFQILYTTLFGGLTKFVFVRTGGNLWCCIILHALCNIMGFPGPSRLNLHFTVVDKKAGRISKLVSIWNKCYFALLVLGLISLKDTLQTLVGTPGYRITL

Trypsin = Trypsin (Sus scrofa, UniProt P00761); experiment: trypsin protease activity blockade – biochemical, quenched peptide fluorescence, cherry-pick, selectivity assay for Rce1 protease inhibitor project, dose response (AID 488789)
Sequence of Trypsin (P00761 whole entry): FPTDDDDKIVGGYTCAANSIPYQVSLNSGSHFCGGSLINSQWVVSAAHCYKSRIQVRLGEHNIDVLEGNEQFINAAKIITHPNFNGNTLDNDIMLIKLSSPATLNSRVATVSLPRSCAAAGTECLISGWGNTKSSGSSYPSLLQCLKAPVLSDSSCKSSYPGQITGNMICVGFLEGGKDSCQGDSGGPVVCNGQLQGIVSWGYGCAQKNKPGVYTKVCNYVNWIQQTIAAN

CAAX prenyl protease 1 = CAAX prenyl protease 1 (Saccharomyces cerevisiae S288c, UniProt P47154); experiment: yeast CAAX protease Ste24 inhibition – biochemical, S. cerevisiae, plate reader, cherry-pick, dose response (AID 488815)
Sequence of CAAX prenyl protease 1 (P47154 whole entry): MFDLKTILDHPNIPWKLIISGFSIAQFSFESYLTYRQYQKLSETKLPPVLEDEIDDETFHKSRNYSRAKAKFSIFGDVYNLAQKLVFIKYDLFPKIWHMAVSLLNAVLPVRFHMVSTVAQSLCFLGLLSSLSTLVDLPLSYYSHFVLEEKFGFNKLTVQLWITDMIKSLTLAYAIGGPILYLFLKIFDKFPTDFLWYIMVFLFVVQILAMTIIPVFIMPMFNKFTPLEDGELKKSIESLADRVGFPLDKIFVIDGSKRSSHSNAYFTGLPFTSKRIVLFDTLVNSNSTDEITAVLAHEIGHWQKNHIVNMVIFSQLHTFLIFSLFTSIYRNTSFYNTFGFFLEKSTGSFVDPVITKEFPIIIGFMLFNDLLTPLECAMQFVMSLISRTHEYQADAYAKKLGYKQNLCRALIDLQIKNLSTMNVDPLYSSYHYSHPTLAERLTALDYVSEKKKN

Cytochrome P450 1A2 = molecular target: T2, Cytochrome P450 1A2 (Homo sapiens, UniProt P05177);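 further: PubChem cytochrome P450 panel assay, CYP1A2 panel member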
T2 sequence (P05177 whole entry): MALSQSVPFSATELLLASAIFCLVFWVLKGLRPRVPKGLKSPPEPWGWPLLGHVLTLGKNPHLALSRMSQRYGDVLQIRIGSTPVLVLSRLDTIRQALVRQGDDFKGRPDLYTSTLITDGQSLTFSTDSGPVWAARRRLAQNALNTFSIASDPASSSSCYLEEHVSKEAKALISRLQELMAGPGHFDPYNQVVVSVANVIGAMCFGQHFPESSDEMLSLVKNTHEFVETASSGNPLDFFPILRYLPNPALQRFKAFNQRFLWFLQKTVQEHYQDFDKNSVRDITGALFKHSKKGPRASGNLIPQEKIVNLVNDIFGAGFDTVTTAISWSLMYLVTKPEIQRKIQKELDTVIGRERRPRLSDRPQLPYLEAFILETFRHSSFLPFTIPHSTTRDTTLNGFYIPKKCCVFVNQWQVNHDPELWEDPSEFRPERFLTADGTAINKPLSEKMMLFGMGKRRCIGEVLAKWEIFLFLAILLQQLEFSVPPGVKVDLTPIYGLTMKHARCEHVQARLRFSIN

Cytochrome P450 2C9 = Cytochrome P450 2C9 (Homo sapiens, UniProt P11712)
Sequence of Cytochrome P450 2C9 (P11712 whole entry): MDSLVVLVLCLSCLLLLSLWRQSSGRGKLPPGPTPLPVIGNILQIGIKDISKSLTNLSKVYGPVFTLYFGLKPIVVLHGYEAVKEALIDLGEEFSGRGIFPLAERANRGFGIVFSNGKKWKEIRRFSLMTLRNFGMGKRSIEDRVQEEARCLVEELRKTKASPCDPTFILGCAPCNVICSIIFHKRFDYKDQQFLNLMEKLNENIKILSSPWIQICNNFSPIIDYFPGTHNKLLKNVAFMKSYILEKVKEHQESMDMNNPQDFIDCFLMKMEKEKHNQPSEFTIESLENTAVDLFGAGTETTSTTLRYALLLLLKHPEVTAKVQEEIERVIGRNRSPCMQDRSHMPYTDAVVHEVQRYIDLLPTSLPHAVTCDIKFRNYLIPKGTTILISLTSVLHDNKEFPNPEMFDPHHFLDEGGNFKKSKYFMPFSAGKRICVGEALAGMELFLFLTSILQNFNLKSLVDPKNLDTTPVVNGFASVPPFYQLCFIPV

Tumor necrosis factor = Tumor necrosis factor (Homo sapiens, UniProt P01375); experiment: analog potency on TNFa NF-kB signaling – cell-based, revised, SAR follow-up (AID 2337); assay type: functional
Sequence of Tumor necrosis factor (P01375 whole entry): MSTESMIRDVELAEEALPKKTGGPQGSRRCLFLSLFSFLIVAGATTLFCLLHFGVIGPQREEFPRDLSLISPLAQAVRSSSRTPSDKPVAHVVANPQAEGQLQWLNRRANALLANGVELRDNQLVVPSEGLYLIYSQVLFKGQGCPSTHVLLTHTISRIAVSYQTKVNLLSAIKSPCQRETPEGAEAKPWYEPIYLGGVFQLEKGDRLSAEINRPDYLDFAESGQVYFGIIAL

HEK293 [1] = experiment: NOD2 signaling inhibitors in MDP-stimulated cells, cell-based, uHTS, luminescence (AID 2001); assay type: functional; details: Homo sapiens
HEK293 [2] = experiment: cells; assay type: functional, cell-based; details: Homo sapiens
[3] = molecular target: T3, Sentrin-specific protease 8 (Homo sapiens, UniProt Q96LD8); assay type: functional
T3 sequence (Q96LD8 whole entry): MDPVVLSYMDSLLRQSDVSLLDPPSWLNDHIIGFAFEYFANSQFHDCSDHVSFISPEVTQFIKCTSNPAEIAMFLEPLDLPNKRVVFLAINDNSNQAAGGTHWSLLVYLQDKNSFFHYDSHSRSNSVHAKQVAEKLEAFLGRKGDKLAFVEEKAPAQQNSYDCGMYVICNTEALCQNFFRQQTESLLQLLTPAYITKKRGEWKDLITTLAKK

HEK293 [4] = experiment: cells; details: Homo sapiens
[5] = molecular target: Nucleotide-binding oligomerization domain-containing protein 1 (Homo sapiens, UniProt Q9Y239); experiment: blockers of NOD1 pathway activity – revised, SAR follow-up (AID 2333); assay type: functional
Sequence of Nucleotide-binding oligomerization domain-containing protein 1 (Q9Y239 whole entry, the tested form may be a part): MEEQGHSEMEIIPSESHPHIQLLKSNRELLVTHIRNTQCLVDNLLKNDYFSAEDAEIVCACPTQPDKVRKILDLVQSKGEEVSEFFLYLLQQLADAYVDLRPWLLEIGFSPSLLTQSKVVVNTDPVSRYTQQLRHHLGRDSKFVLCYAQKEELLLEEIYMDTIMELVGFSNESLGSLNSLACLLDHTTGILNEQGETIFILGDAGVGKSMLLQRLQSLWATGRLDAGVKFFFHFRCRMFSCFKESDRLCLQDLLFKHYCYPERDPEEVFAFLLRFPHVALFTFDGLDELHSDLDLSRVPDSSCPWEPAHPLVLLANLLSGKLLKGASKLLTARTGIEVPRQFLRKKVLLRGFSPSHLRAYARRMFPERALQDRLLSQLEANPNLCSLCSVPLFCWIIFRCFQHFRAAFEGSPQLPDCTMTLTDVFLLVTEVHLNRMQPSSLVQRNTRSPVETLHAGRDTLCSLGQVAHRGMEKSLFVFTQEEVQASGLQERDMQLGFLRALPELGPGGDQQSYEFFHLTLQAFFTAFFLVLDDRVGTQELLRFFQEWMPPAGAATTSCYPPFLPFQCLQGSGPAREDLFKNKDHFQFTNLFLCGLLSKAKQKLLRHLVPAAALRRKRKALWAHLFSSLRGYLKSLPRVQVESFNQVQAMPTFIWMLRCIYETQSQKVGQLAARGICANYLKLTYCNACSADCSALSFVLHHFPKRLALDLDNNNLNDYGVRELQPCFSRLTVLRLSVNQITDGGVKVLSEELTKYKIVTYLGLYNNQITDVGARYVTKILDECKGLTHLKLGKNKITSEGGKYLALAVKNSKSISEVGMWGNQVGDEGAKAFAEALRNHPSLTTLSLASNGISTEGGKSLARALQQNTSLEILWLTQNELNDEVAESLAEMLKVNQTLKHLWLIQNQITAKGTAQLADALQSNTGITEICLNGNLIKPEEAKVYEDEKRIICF

[6] = molecular target: T3, Sentrin-specific protease 8; assay type: functional; remark: listed apart in the source
HEK293 [7] = experiment: cells; assay type: functional, cell-based; details: Homo sapiens; remark: listed apart in the source
HEK293 [8] = experiment: inhibition of NOD1-driven NF-kB reporter – cell-based, luminescence, uHTS, primary screen (AID 1578); assay type: functional; details: Homo sapiens
SUMO E1/E2 = SUMO E1/E2 (Homo sapiens, UniProt P63279+Q9UBE0+Q9UBT2); experiment: SAR analysis of SUMOylation using HTRF in an in-Vitro dose response assay. [Related pubchem assays (depositor defined):AID2006, AID2011, AID2018, AID2069, AID2658]; assay type: functional
Sequence of SUMO E1/E2 (Q9UBE0 whole entry): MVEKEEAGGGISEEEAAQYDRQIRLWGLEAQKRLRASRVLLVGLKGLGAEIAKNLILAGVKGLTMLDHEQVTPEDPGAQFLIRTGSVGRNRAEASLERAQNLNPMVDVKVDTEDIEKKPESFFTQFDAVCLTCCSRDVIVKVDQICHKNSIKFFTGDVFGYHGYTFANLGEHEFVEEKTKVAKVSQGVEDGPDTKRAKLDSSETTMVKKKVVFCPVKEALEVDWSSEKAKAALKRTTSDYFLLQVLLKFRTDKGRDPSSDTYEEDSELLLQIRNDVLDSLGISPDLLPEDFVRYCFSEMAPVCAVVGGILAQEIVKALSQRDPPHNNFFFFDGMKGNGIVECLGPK
Sequence of SUMO E1/E2 (Q9UBT2 whole entry): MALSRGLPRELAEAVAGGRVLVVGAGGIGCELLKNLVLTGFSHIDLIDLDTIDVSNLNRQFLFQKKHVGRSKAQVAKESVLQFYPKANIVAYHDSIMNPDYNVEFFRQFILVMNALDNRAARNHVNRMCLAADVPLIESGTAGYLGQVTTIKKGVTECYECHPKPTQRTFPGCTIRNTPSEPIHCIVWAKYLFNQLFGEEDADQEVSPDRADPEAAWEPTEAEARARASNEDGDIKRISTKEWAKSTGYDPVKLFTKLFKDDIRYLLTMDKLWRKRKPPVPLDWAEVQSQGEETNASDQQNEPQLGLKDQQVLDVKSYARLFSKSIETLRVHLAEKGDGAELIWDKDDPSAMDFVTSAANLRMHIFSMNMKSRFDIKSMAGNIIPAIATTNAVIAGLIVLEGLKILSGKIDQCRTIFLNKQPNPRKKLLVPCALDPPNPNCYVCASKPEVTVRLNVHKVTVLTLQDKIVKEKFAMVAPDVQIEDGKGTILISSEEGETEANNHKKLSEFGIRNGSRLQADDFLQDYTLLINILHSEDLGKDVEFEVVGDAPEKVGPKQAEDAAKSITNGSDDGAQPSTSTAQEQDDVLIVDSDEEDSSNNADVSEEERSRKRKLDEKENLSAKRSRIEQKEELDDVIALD
Sequence of SUMO E1/E2 (P63279 whole entry): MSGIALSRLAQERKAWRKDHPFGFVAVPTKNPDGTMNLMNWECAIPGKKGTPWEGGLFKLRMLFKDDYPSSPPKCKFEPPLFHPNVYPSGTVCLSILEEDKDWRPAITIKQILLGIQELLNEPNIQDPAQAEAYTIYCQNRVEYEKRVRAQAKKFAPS

[9] = molecular target: T4, Mannose-6-phosphate isomerase (Homo sapiens, UniProt P34949); experiment: phosphomannose isomerase inhibition – biochemical, fluorescence intensity, confirmation (AID 1535)
T4 sequence (P34949 whole entry): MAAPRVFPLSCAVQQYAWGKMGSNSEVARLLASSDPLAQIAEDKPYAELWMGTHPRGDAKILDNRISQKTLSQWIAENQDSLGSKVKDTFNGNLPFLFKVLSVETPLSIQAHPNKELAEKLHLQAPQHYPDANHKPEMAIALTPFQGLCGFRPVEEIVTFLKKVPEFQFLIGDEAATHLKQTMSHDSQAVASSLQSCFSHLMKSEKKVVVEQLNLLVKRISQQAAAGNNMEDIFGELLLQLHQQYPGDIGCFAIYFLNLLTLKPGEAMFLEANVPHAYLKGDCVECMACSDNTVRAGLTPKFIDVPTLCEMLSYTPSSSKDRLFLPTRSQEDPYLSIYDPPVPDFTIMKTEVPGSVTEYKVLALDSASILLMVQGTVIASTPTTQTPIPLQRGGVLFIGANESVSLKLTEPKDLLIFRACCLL

[10] = molecular target: T4, Mannose-6-phosphate isomerase; experiment: Confirmation of compounds inhibiting phosphomannose isomerase (PMI) via a fluorescence intensity assay using a high concentration of mannose 6-phosphate. [Related pubchem assays (depositor defined):AID1209, AID1220, AID1545, AID1553, AID1620]
Phosphomannomutase 2 = Phosphomannomutase 2 (Homo sapiens, UniProt O15305); experiment: Counter screen SAR assay for PMM2 inhibitors via a fluorescence intensity assay. [Related pubchem assays (depositor defined):AID1545, AID1574]
Sequence of Phosphomannomutase 2 (O15305 whole entry): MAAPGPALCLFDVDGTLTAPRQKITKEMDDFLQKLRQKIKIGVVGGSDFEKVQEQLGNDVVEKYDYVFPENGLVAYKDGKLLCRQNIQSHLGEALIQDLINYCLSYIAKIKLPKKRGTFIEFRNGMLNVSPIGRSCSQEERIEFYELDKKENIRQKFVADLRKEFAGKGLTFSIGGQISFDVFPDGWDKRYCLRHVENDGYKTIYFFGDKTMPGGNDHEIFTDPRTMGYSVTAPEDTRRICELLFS

SMILES: COc1cc(OC)c(C(=O)CCCN2CCCC2)c(OC)c1 [BUFLOMEDIL]
AC50 (Cytochrome P450 1A2): inactive
AC50 (Cytochrome P450 2C9): inactive

SMILES: O=C(Nc1ccc(Cl)cc1)c1ccc(CN2CCc3ccccc3C2)cc1
IC50 (Tumor necrosis factor): 4.66 µM (active) and 491 nM (active)
IC50 (HEK293 [1]): 5.45 µM (inactive)
IC50 (HEK293 [2]): > 20 µM (inactive)
IC50 [3]: 22.1 µM (active)
IC50 (HEK293 [4]): > 20 µM (inactive)
IC50 [5]: 1.19 µM (active) and 833 nM (active)
IC50 [6]: > 100 µM (inactive)
IC50 (HEK293 [7]): 2.11 µM (active)
EC50 (HEK293 [8]): 2.29 µM (active)

The remaining lines, values ahead:

AC50 (CAAX prenyl protease 2): > 100 µM (inactive)
AC50 (Trypsin): 5.7 µM (active)
AC50 (CAAX prenyl protease 1): 5.08 µM (active)
SMILES: CCOc1ccc(C2C(C(=O)OC)=CN(C(C)c3ccccc3)C=C2C(=O)OC)cc1 (stereo not drawn)

IC50 (SUMO E1/E2): 29.2 µM (active)
SMILES: C/C(=N\OCc1nc2ccccc2c(=O)n1/N=C/c1ccccc1O)c1ccccc1

IC50 [9]: 86.8 µM (active)
IC50 [10]: > 100 µM (inactive)
IC50 (Phosphomannomutase 2): > 100 µM (inactive)
SMILES: COc1ccc2c(=O)n(C3CCCC3)sc2c1
